Patent US20090181975A1, “NEBIVOLOL IN THE TREATMENT OF SEXUAL DYSFUNCTION” (FOREST LABORATORIES HOLDINGS LIMITED, priority 2008, published 2009)

Assays:
anesthetized rats = assay: Mean arterial pressure (MAP) and heart rate (HR) in anesthetized rats; assay type: in vivo, rat (Sprague-Dawley); settings: nebivolol 3 mg/kg i.v.; L-NAME 3 mg/kg, ODQ 1 mg/kg, propranolol 1 mg/kg, sildenafil 0.3 mg/kg i.v.
Experimental: To determine blood pressure and heart rate, Sprague-Dawley rats (250-400 g) were anesthetized with ketolar and diazepam. The right carotid artery was catheterized for constant blood pressure and heart rate measurement by means of a pressure transducer connected to a PowerLab data acquisition system (ADInstruments). The left external jugular vein was catheterized for saline or drug infusion. 3 mg/kg nebivolol (n=6) or vehicle (50% glycofurol; n=4) was administered intravenously in anesthetized rats and MAP and HR were measured. […] The effect of nebivolol in combination with the type 5 phosphodiesterase (PDE-5) inhibitor sildenafil on hypotension and heart rate was studied in rats using the methods described above.

cGMP in rat plasma = assay: Plasma cGMP content by ELISA; assay type: in vivo, rat (Sprague-Dawley); settings: nebivolol 3 mg/kg i.v.; L-NAME 3 mg/kg, ODQ 1 mg/kg, propranolol 1 mg/kg
Experimental: To determine the plasma cGMP content, Sprague-Dawley rats were anesthetized with urethane (1.25 g/kg). The right carotid artery was catheterized for constant blood pressure and heart rate measurement by means of a pressure transducer connected to a PowerLab data acquisition system (ADInstruments). The left external jugular vein was catheterized for saline or drug infusion. After administering the respective treatments, rat plasma samples were collected, immediately frozen and stored at −80° C. until extraction for cyclic nucleotide assay. cGMP was determined by ELISA using a kit from Cayman Chemical Co. Plasmatic cGMP levels were determined 10 minutes after nebivolol administration.

[1] = tested on: nitrite plus nitrate (NOx) in rat serum; assay: Serum nitrite plus nitrate (NOx) by Griess colorimetric method; assay type: in vivo; settings: nebivolol 3 mg/kg i.v.; L-NAME 3 mg/kg, ODQ 1 mg/kg, propranolol 1 mg/kg, sildenafil 0.3 mg/kg
Experimental: Total NO derivatives (nitrites plus nitrates) were measured in pre-filtered (10,000 MW pore size) serum samples from the studied rats by the Griess colorimetric method, using a commercial kit for nitrite and nitrate determination from Cayman Chemical Co. (Ann Arbor, Mich.). Serum concentrations of NOx were determined 10 minutes after nebivolol administration.

[2] = tested on: human corpus cavernosum (HCC) strips; assay: Relaxation of human corpus cavernosum strips contracted with U46619; assay type: cell-based; settings: metoprolol 1 μM, atenolol 1 μM, nebivolol 0.3 μM
Experimental: Specimens of human corpus cavernosum were obtained from organ donors and from impotent men at the time of penile prosthesis implantation. Tissues were placed in ice-cold M-400 solution (pH 7.4; 400 mOsm/kg, composition in w/v: 4.19% manitol, 0.2% KH2PO4, 0.97% K2HPO4.3H2O, 0.11% KCl and 0.08% NaHCO3) at the time of removal and transported to the laboratory for utilization within 16 h. Strips of human corpus cavemosum were mounted on force transducers in 8 ml organ baths (37° C.) containing physiological salt solution (PSS) continuously bubbled with 95% O2/5% CO2 mixture to maintain a pH of 7.4. Strips were contracted with the thromboxane receptor agonist U46619 (1-3 nM) and relaxation responses were evaluated by cumulative additions of compounds to the chambers.

[3] = tested on: human penile resistance arteries (HPRA); assay: Relaxation of human penile resistance arteries contracted with U46619 (myograph); assay type: cell-based; parameters: effect on endothelium-dependent relaxation of HPRA caused by acetylcholine / effect on sildenafil-mediated relaxation of HPRA: unit of the concentration uncertain; settings: metoprolol (1 (unit uncertain)), atenolol (1 (unit uncertain)), nebivolol (0.3 (unit uncertain))
Experimental: Specimens of human corpus cavernosum were obtained from organ donors and from impotent men at the time of penile prosthesis implantation. Tissues were placed in ice-cold M-400 solution (pH 7.4; 400 mOsm/kg, composition in w/v: 4.19% manitol, 0.2% KH2PO4, 0.97% K2HPO4.3H2O, 0.11% KCl and 0.08% NaHCO3) at the time of removal and transported to the laboratory for utilization within 16 h.
To determine the resistance of penile small arteries, helicine arteries (lumen diameter 150-400 μm) which are the terminal branches of deep penile arteries, were dissected by carefully removing the adhering trabecular tissue, and arterial ring segments (2 mm long) were subsequently mounted on two 40 μm wires on microvascular double Halpern-Mulvany myographs (J.P. Trading, Aarhus, Denmark) for isometric tension recordings. The chambers were filled with PSS continuously bubbled with 95% O2/5% CO2 mixture to maintain a pH of 7.4. […]

Row | SMILES | effect on heart rate reduction caused by nebivolol (anesthetized rats) | effect on hypotension caused by nebivolol (anesthetized rats) | effect on nebivolol-induced increase in plasma cGMP (cGMP in rat plasma) | effect on nebivolol-induced increment in serum NOx [1] | effect on acetylcholine-induced endothelium-dependent relaxation of HCC strips [2] | effect on endothelium-dependent relaxation of HPRA caused by acetylcholine [3]
1 | CC(C)NCC(O)COc1cccc2ccccc12 (stereo not shown) [propranolol] | significantly reduced the impact | without affecting | not influenced | – | – | –
2 | COC(=O)[C@@H](N)CCCNC(=N)N[N+](=O)[O-] [L-NAME, Nω-nitro-L-arginine methyl ester] | did not affect | significantly reduced | slightly reduced | prevents this effect | – | –
3 | O=c1onc2cnc3ccccc3n12 [ODQ, 1-H-(1,2,4)oxadiazolo(4,3-alpha)quinoxaline-1-one] | did not significantly modify | did not significantly modify | slightly reduced | prevents this effect | – | –
4 | COCCc1ccc(OCC(O)CNC(C)C)cc1 (stereo not shown) [metoprolol] | – | – | – | – | not significantly modified | not affected
